In data set [1] the test system is metabotropic glutamate receptor at the subtypes mGluR1 and mGluR5. The settings on record: Thomsen and Suzdak 1993; cited from earlier work.
For data set [2], the target named is T1, mGluR1a (Rattus norvegicus, UniProt P23385).
T1 construct: expressed in transfected cells; host or cells: BHK 570 (baby hamster kidney) cells
In words: Inhibition of PI-hydrolysis in BHK 570 cells expressing mGluR1a receptors (antagonist activity vs 10 μM glutamate). In kind it is cell-based.

For data set [3], the target named is T1, mGluR1a. In words: Testing for non competitiveness: mGluR1a-mediated PI-hydrolysis, glutamate dose-response with and without antagonist. In kind it is cell-based. The settings on record: for effect on maximal response for glutamate / effect on the potency of glutamate / pharmacological profile: BHK cells expressing mGluR1a; for Emax: basal subtracted.
For data set [4], the target named is T1, mGluR1a. The data set is described as follows: [3H]Glutamate binding to mGluR1a. As to conditions: BHK cells expressing mGluR1a. The procedure:
Membranes prepared from BHK cells expressing mGluR1a were prepared as described (Thomsen, C. et al. (1993), Brain Res. 619, 22-28). […] IC50 values were calculated by a non-linear regression analysis using the GraphPad-Prism program (I.S.I., Philadelphia). Inhibitory constants (Ki) were calculated from the IC50 values using the equation: […]

The target in the next data set is Bz. The data set is described as follows: Affinity for Bz receptor (Table 3). In kind it is binding.
The target in another data set is AMPA. In words: Affinity for AMPA receptor (Table 3). In kind it is binding.
A further data set deals with KAIN. The data set is described as follows: Affinity for KAIN receptor (Table 3). In kind it is binding.
The target in a further data set is CPP. In words: Affinity for CPP receptor (Table 3). In kind it is binding.
For a further data set, the target named is TCP. In words: Affinity for TCP receptor (Table 3). In kind it is binding.
Another data set addresses CNQX. In words: Affinity for CNQX receptor (Table 3). It is filed as binding.
The subject of data set [5] is metabotropic glutamate receptor. The settings on record: cited from earlier work.
The test system of data set [6] is release of dopamine in the rat brain. As to conditions: Sacaan et al. 1992; cited from earlier work.
In another data set the test system is MCAO model in mice. As to conditions: Chiamulera et al. 1992; cited from earlier work.
For a further data set, the system named is nerve cell cultures. As to conditions: Koh et al. 1991; cited from earlier work.
The test system of a further data set is NMDA-induced responses. The settings on record: a number of preparations; cited from earlier work.
For the next data set, the system named is control BHK cells. The settings on record: 1 mM; cited from earlier work.
A further data set deals with mGluR1α. The settings on record: 1 mM, BHK cells expressing mGluR1α; cited from earlier work.
In data set [7] the target is T1, mGluR1a. The settings on record: BHK cells expressing mGluR1a, Thomsen and Suzdak 1993; cited from earlier work.
The target in data set [8] is T1, mGluR1a. The settings on record: competitive antagonist, Thomsen and Suzdak 1993; cited from earlier work.
In data set [9] the test system is responses evoked by the ionotropic glutamate receptor agonist, AMPA. The settings on record: Mori-Okamoto et al. 1993; cited from earlier work.
A further data set deals with GABAA. The settings on record: neurones, nucleus of the Solitary tract; cited from earlier work.
For another data set, the system named is currents evoked by AMPA. As to conditions: neurones, nucleus of the Solitary tract; cited from earlier work.
Another data set relates to mGluR1/mGluR5. The settings on record: Mori-Okamoto et al. 1993; cited from earlier work.
[10] abbreviates: read-out: response to glutamate relative to the maximal response evoked by 300 μM glutamate, antagonist 10 μM, glutamate 0.
The mark [11] stands for this setting: read-out: response to glutamate relative to the maximal response evoked by 300 μM glutamate, antagonist 10 μM, glutamate 3.
Where [12] appears, read: read-out: response to glutamate relative to the maximal response evoked by 300 μM glutamate, antagonist 10 μM, glutamate 10.
The mark [13] stands for this setting: read-out: response to glutamate relative to the maximal response evoked by 300 μM glutamate, antagonist 10 μM, glutamate 30.
Setting [14] is: read-out: response to glutamate relative to the maximal response evoked by 300 μM glutamate, antagonist 10 μM, glutamate 100.
Setting [15] is: read-out: response to glutamate relative to the maximal response evoked by 300 μM glutamate, antagonist 10 μM, glutamate 300.

Where two headings read alike, the source gives them in different places.

We go through 19 compounds from US5783575A, “Antagonists, their preparation and use” (Novo Nordisk A/S, priority 1994, dated 1998).

T1 sequence (P23385 19-1199): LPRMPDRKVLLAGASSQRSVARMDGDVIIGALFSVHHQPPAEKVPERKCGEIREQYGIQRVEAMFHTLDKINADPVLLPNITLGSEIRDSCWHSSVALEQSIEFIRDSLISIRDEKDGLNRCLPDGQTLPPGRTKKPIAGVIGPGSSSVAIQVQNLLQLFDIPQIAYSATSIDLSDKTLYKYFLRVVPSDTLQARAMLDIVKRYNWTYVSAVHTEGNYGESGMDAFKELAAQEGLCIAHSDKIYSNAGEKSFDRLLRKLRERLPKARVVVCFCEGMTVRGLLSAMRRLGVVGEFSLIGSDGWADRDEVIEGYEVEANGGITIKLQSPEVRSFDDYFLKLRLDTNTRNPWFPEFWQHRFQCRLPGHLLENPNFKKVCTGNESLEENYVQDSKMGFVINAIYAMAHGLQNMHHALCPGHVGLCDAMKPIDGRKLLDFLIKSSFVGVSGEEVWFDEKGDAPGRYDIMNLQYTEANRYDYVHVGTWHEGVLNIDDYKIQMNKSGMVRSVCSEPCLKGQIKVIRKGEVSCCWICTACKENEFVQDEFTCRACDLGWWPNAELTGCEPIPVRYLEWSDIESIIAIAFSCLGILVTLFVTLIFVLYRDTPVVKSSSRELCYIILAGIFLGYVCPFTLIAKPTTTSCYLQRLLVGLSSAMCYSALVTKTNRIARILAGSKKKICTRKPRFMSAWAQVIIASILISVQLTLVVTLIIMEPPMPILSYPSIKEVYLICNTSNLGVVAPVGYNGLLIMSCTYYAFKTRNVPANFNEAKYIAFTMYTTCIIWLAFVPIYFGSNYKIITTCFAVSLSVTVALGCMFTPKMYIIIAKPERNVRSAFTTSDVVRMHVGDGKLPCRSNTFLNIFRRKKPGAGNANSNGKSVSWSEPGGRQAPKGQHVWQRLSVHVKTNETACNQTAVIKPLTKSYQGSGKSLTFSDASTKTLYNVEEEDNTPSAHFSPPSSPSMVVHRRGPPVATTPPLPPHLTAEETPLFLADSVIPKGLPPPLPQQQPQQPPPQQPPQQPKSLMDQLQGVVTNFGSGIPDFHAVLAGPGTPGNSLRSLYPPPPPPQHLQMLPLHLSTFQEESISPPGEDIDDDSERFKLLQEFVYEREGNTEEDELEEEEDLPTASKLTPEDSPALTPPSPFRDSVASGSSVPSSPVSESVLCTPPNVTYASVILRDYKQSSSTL

As for `N[C@H](C(=O)O)c1ccc(C(=O)O)c(O)c1` [Compound S-4C3HPG, S-4-carboxy-3-hydroxyphenyl glycine], the “antagonism of trans ACPD stimulated phosphoinositide hydrolysis” value in data set [1] is “antagonise trans ACPD stimulated phosphoinositide hydrolysis”.

Regarding `O=C(O)c1cc2c3ccccc3n(Cc3ccccc3)c2s1` [Compound 8, 8-Benzylthieno[2,3-b]indole-2-carboxylic acid], the IC50 against mGluR1a [2] is 21 µM; at Bz, 471 µM; against AMPA it was more than 980 µM; against KAIN, 870 µM; against CPP it was 300 µM; against TCP, more than 980 µM. This compound also yielded an IC50 against CNQX of more than 980 µM. Besides, the “receptor selectivity for mGluR1a” value at mGluR1a [2] (based on Table 3, criterion 5-fold more potent at mGluR1a) is “considered selective for mGluR1a”. Besides, the “effect on maximal response for glutamate” value on mGluR1a [3] is listed as “dose-dependently decreased the maximal response for glutamate”. The “effect on the potency of glutamate” value on mGluR1a [3] is “did not affect the potency of glutamate”. Besides, the pharmacological profile result on mGluR1a [3] is recorded as “non-competitive antagonists”. Also, the Emax came out at 2% at mGluR1a [3] (setting [10]); 5% at mGluR1a [3] (setting [11]); 35% at mGluR1a [3] (setting [12]); 65% at mGluR1a [3] (setting [13]); 92% on mGluR1a [3] (setting [14]); 89% at mGluR1a [3] (setting [15]). Besides, the Emax stood at 2% on mGluR1a [3] (read-out: response to glutamate relative to the maximal response evoked by 300 μM glutamate, antagonist 30 μM, glutamate 0); 4% at mGluR1a [3] (read-out: response to glutamate relative to the maximal response evoked by 300 μM glutamate, antagonist 30 μM, glutamate 3); 22% at mGluR1a [3] (read-out: response to glutamate relative to the maximal response evoked by 300 μM glutamate, antagonist 30 μM, glutamate 10); 58% on mGluR1a [3] (read-out: response to glutamate relative to the maximal response evoked by 300 μM glutamate, antagonist 30 μM, glutamate 30); 64% on mGluR1a [3] (read-out: response to glutamate relative to the maximal response evoked by 300 μM glutamate, antagonist 30 μM, glutamate 100); 66% at mGluR1a [3] (read-out: response to glutamate relative to the maximal response evoked by 300 μM glutamate, antagonist 30 μM, glutamate 300). The Emax at mGluR1a [3] (read-out: response to glutamate relative to the maximal response evoked by 300 μM glutamate, antagonist 100 μM, glutamate 0) stood at 5%; at mGluR1a [3] (read-out: response to glutamate relative to the maximal response evoked by 300 μM glutamate, antagonist 100 μM, glutamate 3), 2%; on mGluR1a [3] (read-out: response to glutamate relative to the maximal response evoked by 300 μM glutamate, antagonist 100 μM, glutamate 10) it was 1%; on mGluR1a [3] (read-out: response to glutamate relative to the maximal response evoked by 300 μM glutamate, antagonist 100 μM, glutamate 30), 24%; on mGluR1a [3] (read-out: response to glutamate relative to the maximal response evoked by 300 μM glutamate, antagonist 100 μM, glutamate 100) it was 34%; at mGluR1a [3] (read-out: response to glutamate relative to the maximal response evoked by 300 μM glutamate, antagonist 100 μM, glutamate 300), 38%. For the same compound, the “displacement of [3H]glutamate binding” value on mGluR1a [4] is listed as “did not displace”.

Regarding `N[C@H](C(=O)O)c1ccc(C(=O)O)cc1` [Compound S-4CPG, S-4-carboxyphenyl glycine], the “antagonism of trans ACPD stimulated phosphoinositide hydrolysis” value in [1] is “antagonise trans ACPD stimulated phosphoinositide hydrolysis”.

In the case of `Cn1c2ccc(Cl)cc2c2cc(C(=O)O)sc21` [Compound 54, 5-Chloro-8-methylthieno[2,3-b]indole-2-carboxylic acid], on mGluR1a [2], the midpoint of inhibition, the IC50, lay at 7.2 µM.

In turn, `CCOC(=O)C(C#N)=Cc1c(Cl)n(Cc2ccccc2)c2ccccc12` [Compound 1a, Ethyl 2-cyano-3-(1-benzyl-2-chloro-3-indolyl)acrylate] registered an IC50 on mGluR1a [2] of 2.2 µM.

Regarding `C=C(C)[C@H]1CN[C@H](C(=O)O)[C@H]1CC(=O)O` [kainate], the “effect on metabotropic glutamate receptors” value in data set [5] (selective ionotropic glutamate receptor agonists) is “little effect”.

Take `N[C@@]1(C(=O)O)CC[C@@H](C(=O)O)C1` [trans-ACPD, trans 1S,3R-1-aminocyclopentane-1,3-dicarboxylicacid]: in data set [6], the “effect on release of dopamine” value is recorded as “increase release of dopamine”. Besides, in the data set with MCAO model in mice, the neuroprotection result is given as “neuroprotective”. Besides, the “inhibition of NMDA induced neurotoxicity” value in the data set on nerve cell cultures is on record as “inhibit NMDA induced neurotoxicity”.

On to `Cn1c2ccccc2c2cc(C(=O)N3CCOCC3)sc21` [Compound 27, 8-Methyl-2-morpholinocarbonylthieno[2,3-b]indole], for which, at mGluR1a [2], the IC50 stood at 5.3 µM.

On to `N[C@@]1(C(=O)O)CC[C@@H](C(=O)O)C1` (relative stereo) [(±)-trans-ACPD], for which the “effect on NMDA-induced responses” value in the data set with NMDA-induced responses is “enhanced”.

Take `N[C@@H](Cn1oc(=O)[nH]c1=O)C(=O)O` [quisqualate]: in the data set with control BHK cells, the “stimulation of PI-hydrolysis” value was “no stimulation”. Besides, the “agonism on the metabotropic glutamate receptor” value in data set [5] is recorded as “non-selective agonists”. Moreover, the “increase over basal PI-hydrolysis” value in the data set on mGluR1α is 6-8 fold.

Regarding `c1ccc(Cn2c3ccccc3c3cc(-c4nnn[nH]4)sc32)cc1` [Compound 25, 8-Benzyl-2-(5-tetrazolyl)thieno[2,3-b]indole], the IC50 against mGluR1a [2] was determined as 9 µM.

With `NC(C(=O)O)c1ccc(C(=O)O)c(O)c1` (stereo not shown) [4-carboxy-3-hydroxyphenylglycine], at mGluR1a [7], the “effect on maximal response to glutamate” value is listed as “not affected” and the “effect on potency of glutamate to stimulate PI-hydrolysis” value is listed as “decreased”. For the same compound, the “displacement of [3H]glutamate binding” value on mGluR1a [8] is “displaced [^3 H]glutamate binding from mGluR1a with an affinity which was similar to the functional antagonist potency”.

In the case of `N[C@@]1(C(=O)O)CC[C@@H](C(=O)O)C1` [(1S,3R)-ACPD], the “effect on responses evoked by AMPA” value in data set [9] was “suppress responses evoked by the ionotropic glutamate receptor agonist, AMPA”. Besides, in the data set on GABAA, the “effect on GABAA-mediated currents” value is given as “attenuated”. Besides, the “effect on currents evoked by AMPA” value in the data set on currents evoked by AMPA was “potentiated”.

On mGluR1a [2], `CN1CCN(C(=O)c2cc3c4ccccc4n(C)c3s2)CC1` [Compound 31, 8-Methyl-2-(4-methyl-1-piperazinylcarbonyl)thieno[2,3-b]indole] came in with an IC50 of 36 µM.

In turn, `O=C(O)c1cc2c3ccccc3n(Cc3ccccc3)c2nc1N1CCOCC1` [Compound 3b, 9-Benzyl-2-morpholinopyridino[2,3-b]indole-3-carboxylic acid] had an IC50 on mGluR1a [2] of 10 µM. In addition, the “effect on maximal response for glutamate” value on mGluR1a [3] is “dose-dependently decreased the maximal response for glutamate”. In addition, the “effect on the potency of glutamate” value on mGluR1a [3] is reported as “did not affect the potency of glutamate”. In addition, the pharmacological profile entry at mGluR1a [3] is given as “non-competitive antagonists”. The Emax was 2% on mGluR1a [3] (setting [10]); 5% at mGluR1a [3] (setting [11]); 16% at mGluR1a [3] (setting [12]); 53% at mGluR1a [3] (setting [13]); 75% on mGluR1a [3] (setting [14]); 77% at mGluR1a [3] (setting [15]). In addition, at mGluR1a [4], the “displacement of [3H]glutamate binding” value is listed as “did not displace”.

`C[C@@](N)(C(=O)O)c1ccc(C(=O)O)cc1` [S-MCPG, S-alpha-methyl-4-carboxyphenyl glycine]: the “antagonism of trans ACPD stimulated phosphoinositide hydrolysis” value in data set [1] is given as “antagonise trans ACPD stimulated phosphoinositide hydrolysis”.

Turning to `NC(C(=O)O)c1cc(O)no1` (stereo not shown) [ibotenate], the “agonism on the metabotropic glutamate receptor” value in data set [5] is “non-selective agonists”.

Take `N[C@@H](CP(=O)(O)O)C(=O)O` [L-AP3, L-2-amino-3-phosphonopropionic acid]: the “activity at metabotropic receptors” value in [5] is recorded as “partial agonist”. In addition, the “antagonism of mGluR1/mGluR5” value in the data set with mGluR1/mGluR5 is recorded as “antagonist”.

As to `N[C@@H](CCC(=O)O)C(=O)O` [glutamate, L-glutamate], the “increase over basal PI-hydrolysis” value in the data set on mGluR1α is given as 6-8 fold.
